Legend:
Format in all cases: functional
SR [1] = assay: Cytotoxicity against human SR cells at 10^-7 M after 48 hrs by SRB assay; conditions: read-out: GI
SR [2] = assay: Cytotoxicity against human SR cells at 10^-6 M after 48 hrs by SRB assay; conditions: read-out: GI
RXF 393 = assay: Cytotoxicity against human RXF393 cells after 48 hrs by SRB assay; conditions: RXF 393, 48 h
OVCAR-8 [3] = assay: Cytotoxicity against human OVCAR8 cells after 48 hrs by SRB assay; conditions: OVCAR-8, 48 h
T47D = assay: Cytotoxicity against human T47D cells at 10^-8 M after 48 hrs by SRB assay; conditions: read-out: GI
MDA-MB-435 = assay: Cytotoxicity against human MDA-MB-435 cells at 10^-8 M after 48 hrs by SRB assay; conditions: MDA-MB-435, 48 h, read-out: GI
MCF7 = assay: Cytotoxicity against human MCF7 cells at 10^-8 M after 48 hrs by SRB assay; conditions: MCF7, 48 h, read-out: GI
NCI/ADR-RES = assay: Cytotoxicity against human NCI/ADR-RES cells at 10^-8 M after 48 hrs by SRB assay; conditions: read-out: GI
CAKI-1 = assay: Cytotoxicity against human Caki1 cells at 10^-8 M after 48 hrs by SRB assay; conditions: CAKI-1, 48 h, read-out: GI
SK-MEL-5 = assay: Cytotoxicity against human SK-MEL-5 cells at 10^-8 M after 48 hrs by SRB assay; conditions: SK-MEL-5, 48 h, read-out: GI
SNB-75 = assay: Cytotoxicity against human SNB75 cells at 10^-8 M after 48 hrs by SRB assay; conditions: SNB-75, 48 h, read-out: GI
SNB-19 = assay: Cytotoxicity against human SNB19 cells at 10^-8 M after 48 hrs by SRB assay; conditions: SNB-19, 48 h, read-out: GI
SF-295 = assay: Cytotoxicity against human SF295 cells at 10^-8 M after 48 hrs by SRB assay; conditions: SF-295, 48 h, read-out: GI
KM12 [4] = assay: Cytotoxicity against human KM12 cells at 10^-8 M after 48 hrs by SRB assay; conditions: KM12, 48 h, read-out: GI
HT-29 = assay: Cytotoxicity against human HT-29 cells at 10^-8 M after 48 hrs by SRB assay; conditions: HT-29, 48 h, read-out: GI
NCI-H522 = assay: Cytotoxicity against human NCI-H522 cells at 10^-8 M after 48 hrs by SRB assay; conditions: NCI-H522, 48 h, read-out: GI
NCI-H322M [5] = assay: Cytotoxicity against human NCI-H322M cells at 10^-8 M after 48 hrs by SRB assay; conditions: read-out: GI
NCI-H23 [6] = assay: Cytotoxicity against human NCI-H23 cells at 10^-8 M after 48 hrs by SRB assay; conditions: NCI-H23, 48 h, read-out: GI
CCRF-CEM = assay: Cytotoxicity against human CCRF-CEM cells at 10^-8 M after 48 hrs by SRB assay; conditions: read-out: GI
DU-145 = assay: Cytotoxicity against human DU145 cells at 10^-7 M after 48 hrs by SRB assay; conditions: DU-145, 48 h, read-out: GI
PC-3 = assay: Cytotoxicity against human PC3 cells at 10^-7 M after 48 hrs by SRB assay; conditions: PC-3, 48 h, read-out: GI
TK-10 = assay: Cytotoxicity against human TK10 cells at 10^-7 M after 48 hrs by SRB assay; conditions: TK-10, 48 h, read-out: GI
A498 = assay: Cytotoxicity against human A498 cells at 10^-7 M after 48 hrs by SRB assay; conditions: A498, 48 h, read-out: GI
SK-OV-3 = assay: Cytotoxicity against human SKOV3 cells at 10^-7 M after 48 hrs by SRB assay; conditions: SK-OV-3, 48 h, read-out: GI
OVCAR-8 [7] = assay: Cytotoxicity against human OVCAR8 cells at 10^-7 M after 48 hrs by SRB assay; conditions: OVCAR-8, 48 h, read-out: GI
[8] = Cytotoxicity against human OVCAR4 cells at 10^-7 M after 48 hrs by SRB assay; conditions: OVCAR-4, 48 h, read-out: GI
SK-MEL-2 = assay: Cytotoxicity against human SK-MEL-2 cells at 10^-7 M after 48 hrs by SRB assay; conditions: SK-MEL-2, 48 h, read-out: GI
KM12 [9] = assay: Cytotoxicity against human KM12 cells at 10^-7 M after 48 hrs by SRB assay; conditions: KM12, 48 h, read-out: GI
HCT-15 = assay: Cytotoxicity against human HCT15 cells at 10^-7 M after 48 hrs by SRB assay; conditions: HCT-15, 48 h, read-out: GI
COLO 205 = assay: Cytotoxicity against human COLO205 cells at 10^-7 M after 48 hrs by SRB assay; conditions: COLO 205, 48 h, read-out: GI
NCI-H23 [10] = assay: Cytotoxicity against human NCI-H23 cells at 10^-7 M after 48 hrs by SRB assay; conditions: NCI-H23, 48 h, read-out: GI
NCI-H322M [11] = assay: Cytotoxicity against human NCI-H322M cells at 10^-7 M after 48 hrs by SRB assay; conditions: read-out: GI
[12] = Cytotoxicity against human EKVX cells at 10^-7 M after 48 hrs by SRB assay; conditions: read-out: GI
HOP-62 = assay: Cytotoxicity against human HOP62 cells at 10^-7 M after 48 hrs by SRB assay; conditions: HOP-62, 48 h, read-out: GI
RPMI-8226 = assay: Cytotoxicity against human RPMI8226 cells at 10^-7 M after 48 hrs by SRB assay; conditions: RPMI-8226, 48 h, read-out: GI
[13] = Cytotoxicity against human UO31 cells at 10^-6 M after 48 hrs by SRB assay; conditions: UO-31, 48 h, read-out: GI
K562 [14] = assay: Cytotoxicity against human K562 cells at 10^-6 M after 48 hrs by SRB assay; conditions: K562, 48 h, read-out: GI
K562 [15] = assay: Cytotoxicity against human K562 cells at 10^-5 M after 48 hrs by SRB assay; conditions: K562, 48 h, read-out: GI

## CCN(Cc1nc2cc(C(F)(F)F)ccc2nc1-c1ccccc1)c1ccc(OC)c(OC)c1
SR [1]
  inhibition of growth at 0.1 µM: < 40%
SR [2]
  inhibition of growth at 1 µM: < 40%
RXF 393
  GI50: 309 nM
OVCAR-8 [3]
  GI50: 1510 nM
T47D
  inhibition of growth at 0.01 µM: < 40%
MDA-MB-435
  inhibition of growth at 0.01 µM: < 40%
MCF7
  inhibition of growth at 0.01 µM: < 40%
NCI/ADR-RES
  inhibition of growth at 0.01 µM: < 40%
CAKI-1
  inhibition of growth at 0.01 µM: < 40%
SK-MEL-5
  inhibition of growth at 0.01 µM: < 40%
SNB-75
  inhibition of growth at 0.01 µM: < 40%
SNB-19
  inhibition of growth at 0.01 µM: < 40%
SF-295
  inhibition of growth at 0.01 µM: < 40%
KM12 [4]
  inhibition of growth at 0.01 µM: < 40%
HT-29
  inhibition of growth at 0.01 µM: < 40%
NCI-H522
  inhibition of growth at 0.01 µM: < 40%
NCI-H322M [5]
  inhibition of growth at 0.01 µM: < 40%
NCI-H23 [6]
  inhibition of growth at 0.01 µM: < 40%
CCRF-CEM
  inhibition of growth at 0.01 µM: < 40%
DU-145
  inhibition of growth at 0.1 µM: < 40%
PC-3
  inhibition of growth at 0.1 µM: < 40%
TK-10
  inhibition of growth at 0.1 µM: < 40%
A498
  inhibition of growth at 0.1 µM: < 40%
SK-OV-3
  inhibition of growth at 0.1 µM: < 40%
OVCAR-8 [7]
  inhibition of growth at 0.1 µM: 25%
[8]
  inhibition of growth at 0.1 µM: < 40%
SK-MEL-2
  inhibition of growth at 0.1 µM: < 40%
KM12 [9]
  inhibition of growth at 0.1 µM: < 40%
HCT-15
  inhibition of growth at 0.1 µM: < 40%
COLO 205
  inhibition of growth at 0.1 µM: < 40%
NCI-H23 [10]
  inhibition of growth at 0.1 µM: < 40%
NCI-H322M [11]
  inhibition of growth at 0.1 µM: < 40%
[12]
  inhibition of growth at 0.1 µM: < 40%
HOP-62
  inhibition of growth at 0.1 µM: < 40%
RPMI-8226
  inhibition of growth at 0.1 µM: < 40%
[13]
  inhibition of growth at 1 µM: < 40%
K562 [14]
  inhibition of growth at 1 µM: < 40%
K562 [15]
  inhibition of growth at 10 µM: 62%

— ChEMBL document CHEMBL3120154, “2-[N-Alkyl(R-phenyl)-aminomethyl]-3-phenyl-7-trifluoromethylquinoxalines as anticancer agents inhibitors of folate enzymes” (Eur J Med Chem, 2014)
